Experimental data reported in patent publication US20240199635A1, “TETRAHYDROTHIENO PYRIDINE DERIVATIVES AS DDRS INHIBITORS” (CHIESI FARMACEUTICI S.P.A., priority 2021, published 2024).

Columns and labels:
[1] = target: T1, DDR1 (Homo sapiens (Human), UniProt Q08345); assay: DDR1 cell based assay (PathHunter U2OS DDR1 assay); details: U2OS-DDR1 cells, Type II Collagen stimulation, potency class
Experimental: The inhibition of DDR1 receptor activation by compounds was evaluated by PathHunter® U2OS DDR1 assay (Eurofins DiscoverX), according to the manufacturer's instructions. Briefly, U2OS-DDR1 cells were seeded in white 384-well plates at a density of 5000 cells/well and incubated for 2 hours at 37° C. and 5% CO2. Cells were then treated with compounds at different concentrations and incubated for 30 minutes, before stimulation with bovine Type II Collagen 20 μg/ml and incubation overnight at 37° C. and 5% CO2. PathHunter Detection Reagents were prepared according to the protocol provided by DiscoverX and 20 μl/well of this mix were added to each well. After incubating the plates for 1 hour at room temperature in the dark, luminescence signal was acquired with a plate reader. Raw data were normalized to vehicle control (0% for normalization) and positive control (100% for normalization; cells treated with 20 μg/ml collagen II) and IC50 parameters were calculated in GraphPad Prism 8.0 software, using sigmoidal dose-response curve fitting with variable slope.

[2] = target: T2, DDR2 (Homo sapiens (Human), UniProt Q16832); assay: DDR2 binding assay (LanthaScreen Europium Kinase Binding assay); details: potency class, read-out: Ki DDR2
Experimental: (§1) DDR1 and DDR2 binding assays were performed using Life Technologies LanthaScreen™ Europium Kinase Binding assay. The compounds were incubated with 5 nM DDR1 (Carna Biosciences) or 5 nM DDR2 (Life Technologies) for 1 hour at room temperature in white 384-well OptiPlate (PerkinElmer), containing 20 nM or 10 nM Kinase Tracer 178 respectively and 2 nM Europium labelled anti-GST antibody (Life Technologies) in assay buffer (50 mM HEPES pH 7.5, 10 mM MgCl2, 1 mM EGTA and 0.01% BRIJ35).
(§2) The ratio of fluorescence emission 665 nm/615 nm after excitation at 340 nm was obtained using the Tecan Spark 20M plate reader. IC50 values were determined in GraphPad Prism 7.0 software, using 4 parameter model: log(inhibitor) vs. response. IC50 values were converted in Ki using the Cheng-Prusoff equation (Ki=IC50/(1+[Tracer]/Kd).

[3] = target: T1, DDR1; assay: DDR1 binding assay (LanthaScreen Europium Kinase Binding assay); details: potency class, read-out: Ki DDR1
Experimental: as §1, §2

[4] = target: T2, DDR2; assay: DDR2 cell based assay (phospho-ELISA in HEK293T-DDR2 recombinant cells); details: DDR2 phosphorylation, Type II Collagen stimulation, potency class, read-out: IC50DDR2
Experimental: The inhibition of DDR2 phosphorylation by compounds was evaluated in HEK293T-DDR2 recombinant cells by phospho-ELISA assay. Briefly, HEK293T-DDR2 cells were seeded in poly-D-lysine-coated 24-well plates at a density of 250,000 cells/well and incubated for 1.5 hours at 37° C. and 5% CO2 in DMEM+10% FBS. After that, the medium was changed to serum-free DMEM and cells were incubated for 3 hours. Then. test compounds were added at different concentrations 30 minutes before stimulation with bovine Type II Collagen at […] for further 3 hours. For DDR2 phospho-ELISA assay (DuoSet IC Human Phospho-DDR2; R&D Systems), protein extracts were obtained by adding 60 μl/well of lysis buffer prepared according to the manufacturer's instructions. Protein concentration in the samples was determined by BCA assay and the levels of phospho-DDR2 were determined following R&D Systems indications. Raw data were normalized to maximal inhibition control (0% for normalization) and positive control (100% for normalization; cells treated with 20 μg/ml collagen II) and IC50 parameters were calculated in GraphPad Prism 8.0 software, using sigmoidal dose-response curve fitting with variable slope.

T1 sequence (Q08345 19-913): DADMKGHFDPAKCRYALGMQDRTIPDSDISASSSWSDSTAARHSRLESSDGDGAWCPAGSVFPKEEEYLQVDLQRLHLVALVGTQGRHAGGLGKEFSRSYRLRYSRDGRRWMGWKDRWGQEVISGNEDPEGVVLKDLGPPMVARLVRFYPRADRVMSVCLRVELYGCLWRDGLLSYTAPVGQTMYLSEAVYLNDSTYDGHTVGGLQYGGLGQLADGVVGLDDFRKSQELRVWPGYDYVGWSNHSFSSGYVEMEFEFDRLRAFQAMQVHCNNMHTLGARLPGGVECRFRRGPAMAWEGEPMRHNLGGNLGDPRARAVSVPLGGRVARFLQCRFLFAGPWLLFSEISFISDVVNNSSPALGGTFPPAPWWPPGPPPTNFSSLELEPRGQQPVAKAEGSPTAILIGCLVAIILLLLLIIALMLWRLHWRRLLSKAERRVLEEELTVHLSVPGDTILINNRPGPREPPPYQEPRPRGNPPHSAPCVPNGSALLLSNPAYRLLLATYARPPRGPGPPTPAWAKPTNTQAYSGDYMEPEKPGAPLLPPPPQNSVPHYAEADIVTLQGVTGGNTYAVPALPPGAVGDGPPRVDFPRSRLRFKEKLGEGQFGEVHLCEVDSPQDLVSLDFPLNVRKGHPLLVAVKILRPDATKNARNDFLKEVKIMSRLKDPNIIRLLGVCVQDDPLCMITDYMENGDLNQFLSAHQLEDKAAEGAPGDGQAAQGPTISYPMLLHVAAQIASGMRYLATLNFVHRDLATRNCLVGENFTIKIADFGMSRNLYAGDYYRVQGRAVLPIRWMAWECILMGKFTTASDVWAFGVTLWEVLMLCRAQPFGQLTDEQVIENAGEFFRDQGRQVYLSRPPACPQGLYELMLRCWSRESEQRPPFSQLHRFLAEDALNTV
T2 sequence (Q16832 22-855): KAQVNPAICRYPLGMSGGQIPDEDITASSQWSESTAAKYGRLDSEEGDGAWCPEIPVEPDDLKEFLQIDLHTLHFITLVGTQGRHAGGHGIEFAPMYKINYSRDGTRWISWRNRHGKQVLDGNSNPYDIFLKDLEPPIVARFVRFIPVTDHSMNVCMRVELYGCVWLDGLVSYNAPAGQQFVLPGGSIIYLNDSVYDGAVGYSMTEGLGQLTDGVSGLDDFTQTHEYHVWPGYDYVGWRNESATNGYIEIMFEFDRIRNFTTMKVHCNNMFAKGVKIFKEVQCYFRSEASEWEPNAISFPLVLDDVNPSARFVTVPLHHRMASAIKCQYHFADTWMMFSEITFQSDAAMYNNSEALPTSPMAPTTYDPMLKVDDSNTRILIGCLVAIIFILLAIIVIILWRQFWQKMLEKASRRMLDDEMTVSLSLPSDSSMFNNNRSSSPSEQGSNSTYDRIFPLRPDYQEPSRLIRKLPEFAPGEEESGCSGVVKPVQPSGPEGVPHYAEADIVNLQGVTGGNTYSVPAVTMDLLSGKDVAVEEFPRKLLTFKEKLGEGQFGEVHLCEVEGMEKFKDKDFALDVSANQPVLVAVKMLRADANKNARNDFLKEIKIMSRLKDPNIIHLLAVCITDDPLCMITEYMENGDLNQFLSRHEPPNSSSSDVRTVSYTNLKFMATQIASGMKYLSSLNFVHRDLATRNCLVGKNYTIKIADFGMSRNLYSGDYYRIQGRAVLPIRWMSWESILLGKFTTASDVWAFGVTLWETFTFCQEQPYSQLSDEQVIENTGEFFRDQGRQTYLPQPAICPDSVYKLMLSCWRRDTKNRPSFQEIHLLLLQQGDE

Row | Compound | IC50 [1] [nM] | Ki [2] [nM] | Ki [3] [nM] | IC50 [4] [nM]
1 | Cn1cc(Nc2ncc(CN3CCc4c(C(=O)Nc5cc(C(C)(C)C)nn5C)csc4C3)cn2)cn1 [Example 16, N-(3-(tert-butyl)-1-methyl-1H-pyrazol-5-yl)-6-((2-((1-methyl-1H-pyrazol-4-yl)amino)pyrimidin-5-yl)methyl)-4,5,6,7-tetrahydrothieno[2,3-c]pyridine-3-carboxamide] | < 25 | < 25 | < 25 | < 25
2 | Cn1cc(Nc2ncc(CN3CCc4c(C(=O)Nc5cccc(C(F)(F)F)c5)csc4C3)cn2)cn1 [Example 18, 6-((2-((1-methyl-1H-pyrazol-4-yl)amino)pyrimidin-5-yl)methyl)-N-(3-(trifluoromethyl)phenyl)-4,5,6,7-tetrahydrothieno[2,3-c]pyridine-3-carboxamide] | < 25 | < 25 | < 25 | < 25
3 | O=C(Nc1cc(F)cc(C(F)(F)F)c1)c1csc2c1CCN(Cc1cncnc1)C2 [Example 4, N-(3-fluoro-5-(trifluoromethyl)phenyl)-6-(pyrimidin-5-ylmethyl)-4,5,6,7-tetrahydrothieno[2,3-c]pyridine-3-carboxamide] | < 25 | < 25 | < 25 | < 25
4 | O=C(Nc1cccc(C(F)(F)F)c1)c1csc2c1CCN(Cc1cncnc1)C2 [Example 5, 6-(pyrimidin-5-ylmethyl)-N-(3-(trifluoromethyl)phenyl)-4,5,6,7-tetrahydrothieno[2,3-c]pyridine-3-carboxamide] | 25 to 50 | < 25 | < 25 | < 25
5 | Cn1nc(C(C)(C)C)cc1NC(=O)c1csc2c1CCN(Cc1cnc(N)nc1)C2 [Example 26, 6-((2-aminopyrimidin-5-yl)methyl)-N-(3-(tert-butyl)-1-methyl-1H-pyrazol-5-yl)-4,5,6,7-tetrahydrothieno[2,3-c]pyridine-3-carboxamide] | 25 to 50 | 25 to 50 | < 25 | –
6 | Nc1ncc(CN2CCc3c(C(=O)Nc4cccc(C(F)(F)F)c4)csc3C2)cn1 [Example 28, 6-((2-aminopyrimidin-5-yl)methyl)-N-(3-(trifluoromethyl)phenyl)-4,5,6,7-tetrahydrothieno[2,3-c]pyridine-3-carboxamide] | < 25 | < 25 | < 25 | –
7 | CN1CCN(Cc2cc(NC(=O)c3csc4c3CCN(Cc3cccnc3)C4)cc(C(F)(F)F)c2)CC1 [Example 1, N-(3-((4-methylpiperazin-1-yl)methyl)-5-(trifluoromethyl)phenyl)-6-(pyridin-3-ylmethyl)-4,5,6,7-tetrahydrothieno[2,3-c]pyridine-3-carboxamide] | 50 to 80 | 25 to 50 | < 25 | –
8 | O=C(Nc1cccc(C(F)(F)F)c1)c1csc2c1CCN(Cc1cncc(F)c1)C2 [Example 24, 6-((5-fluoropyridin-3-yl)methyl)-N-(3-(trifluoromethyl)phenyl)-4,5,6,7-tetrahydrothieno[2,3-c]pyridine-3-carboxamide] | 25 to 50 | < 25 | < 25 | –
9 | CN1CCN(Cc2cc(NC(=O)c3csc4c3CCN(Cc3cncnc3)C4)cc(C(F)(F)F)c2)CC1 [Example 2, N-(3-((4-methylpiperazin-1-yl)methyl)-5-(trifluoromethyl)phenyl)-6-(pyrimidin-5-ylmethyl)-4,5,6,7-tetrahydrothieno[2,3-c]pyridine-3-carboxamide] | 50 to 80 | 50 to 80 | 25 to 50 | –
10 | N#Cc1cc(NC(=O)c2csc3c2CCN(Cc2cncnc2)C3)cc(C(F)(F)F)c1 [Example 14, N-(3-cyano-5-(trifluoromethyl)phenyl)-6-(pyrimidin-5-ylmethyl)-4,5,6,7-tetrahydrothieno[2,3-c]pyridine-3-carboxamide] | < 25 | < 25 | < 25 | –

The next lines start with the values.

Row | IC50 [1] [nM] | Ki [2] [nM] | Ki [3] [nM] | IC50 [4] [nM] | Compound
11 | 25 to 50 | < 25 | < 25 | 25 to 50 | CC(F)(F)c1cccc(NC(=O)c2csc3c2CCN(Cc2cnc(N)nc2)C3)c1 [Example 58, 6-((2-aminopyrimidin-5-yl)methyl)-N-(3-(1,1-difluoroethyl)phenyl)-4,5,6,7-tetrahydrothieno[2,3-c]pyridine-3-carboxamide]
12 | < 25 | < 25 | < 25 | < 25 | Nc1ncc(CN2CCc3c(C(=O)Nc4cc(F)cc(C(F)(F)F)c4)csc3C2)cn1 [Example 38, 6-((2-aminopyrimidin-5-yl)methyl)-N-(3-fluoro-5-(trifluoromethyl)phenyl)-4,5,6,7-tetrahydrothieno[2,3-c]pyridine-3-carboxamide]
13 | < 25 | < 25 | < 25 | < 25 | Nc1ncncc1CN1CCc2c(C(=O)Nc3cc(F)cc(C(F)(F)F)c3)csc2C1 [Example 45, 6-((4-aminopyrimidin-5-yl)methyl)-N-(3-fluoro-5-(trifluoromethyl)phenyl)-4,5,6,7-tetrahydrothieno[2,3-c]pyridine-3-carboxamide]
14 | 25 to 50 | < 25 | < 25 | 25 to 50 | CN(C)CC(=O)Nc1cncc(CN2CCc3c(C(=O)Nc4cccc(C(F)(F)F)c4)csc3C2)c1 [Example 31, 6-((5-(2-(dimethylamino)acetamido)pyridin-3-yl)methyl)-N-(3-(trifluoromethyl)phenyl)-4,5,6,7-tetrahydrothieno[2,3-c]pyridine-3-carboxamide]
15 | 25 to 50 | < 25 | < 25 | 25 to 50 | CC(=O)Nc1ncc(CN2CCc3c(C(=O)Nc4cc(F)cc(C(F)(F)F)c4)csc3C2)cn1 [Example 39, 6-((2-acetamidopyrimidin-5-yl)methyl)-N-(3-fluoro-5-(trifluoromethyl)phenyl)-4,5,6,7-tetrahydrothieno[2,3-c]pyridine-3-carboxamide]
16 | < 25 | < 25 | < 25 | < 25 | Nc1nccnc1CN1CCc2c(C(=O)Nc3cc(F)cc(C(F)(F)F)c3)csc2C1 [Example 46, 6-((3-aminopyrazin-2-yl)methyl)-N-(3-fluoro-5-(trifluoromethyl)phenyl)-4,5,6,7-tetrahydrothieno[2,3-c]pyridine-3-carboxamide]
17 | < 25 | < 25 | < 25 | < 25 | Cn1nc(NC(=O)c2csc3c2CCN(Cc2cnc(N)nc2)C3)cc1C(C)(C)C [Example 63, 6-((2-aminopyrimidin-5-yl)methyl)-N-(5-(tert-butyl)-1-methyl-1H-pyrazol-3-yl)-4,5,6,7-tetrahydrothieno[2,3-c]pyridine-3-carboxamide]
18 | 50 to 80 | 25 to 50 | < 25 | – | CN(C)[C@@H]1CCN(Cc2cc(NC(=O)c3csc4c3CCN(Cc3cncnc3C(C)(C)F)C4)cc(C(F)(F)F)c2)C1 [Example 51, (R)-N-(3-((3-(dimethylamino)pyrrolidin-1-yl)methyl)-5-(trifluoromethyl)phenyl)-6-((4-(2-fluoropropan-2-yl)pyrimidin-5-yl)methyl)-4,5,6,7-tetrahydrothieno[2,3-c]pyridine-3-carboxamide]
19 | 25 to 50 | < 25 | < 25 | – | O=C(Nc1cc(F)cc(C(F)(F)F)c1)c1csc2c1CCN(Cc1cnc(NCCO)nc1)C2 [Example 44, N-(3-fluoro-5-(trifluoromethyl)phenyl)-6-((2-((2-hydroxyethyl)amino)pyrimidin-5-yl)methyl)-4,5,6,7-tetrahydrothieno[2,3-c]pyridine-3-carboxamide]
